Experimental data published in ChEMBL document CHEMBL2424571, “Synthesis, molecular docking studies, and in vitro screening of barbiturates/thiobarbiturates as antibacterial and cholinesterase inhibitors” (Med Chem Res, 2013).
In brackets after ≈: the same amount, converted by molar mass. Activity calls are given as the source filed them. The calls are words filed in the database; no cut-off is given here.

Columns and labels:
Acetylcholinesterase [1] = molecular target: T1, Acetylcholinesterase (Homo sapiens, UniProt P22303); test: Inhibition of AChE (unknown origin) using acetyl thiocholine iodide as substrate after 30 mins by Ellman's method
T1 sequence (P22303 whole entry): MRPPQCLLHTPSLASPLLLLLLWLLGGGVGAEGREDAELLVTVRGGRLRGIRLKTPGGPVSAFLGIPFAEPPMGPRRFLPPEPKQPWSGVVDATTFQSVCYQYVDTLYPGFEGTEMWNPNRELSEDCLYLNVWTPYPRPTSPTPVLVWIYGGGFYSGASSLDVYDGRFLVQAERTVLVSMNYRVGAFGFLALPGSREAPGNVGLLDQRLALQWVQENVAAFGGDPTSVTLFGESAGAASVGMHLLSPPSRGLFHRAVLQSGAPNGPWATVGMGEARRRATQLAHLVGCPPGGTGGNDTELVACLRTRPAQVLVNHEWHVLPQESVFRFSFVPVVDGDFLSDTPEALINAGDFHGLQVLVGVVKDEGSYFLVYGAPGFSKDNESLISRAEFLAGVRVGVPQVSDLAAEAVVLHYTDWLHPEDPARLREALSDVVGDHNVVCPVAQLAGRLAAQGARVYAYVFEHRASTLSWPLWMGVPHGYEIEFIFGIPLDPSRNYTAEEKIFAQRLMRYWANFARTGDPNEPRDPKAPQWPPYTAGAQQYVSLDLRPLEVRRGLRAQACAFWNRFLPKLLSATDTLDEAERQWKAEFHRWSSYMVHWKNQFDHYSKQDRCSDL

Cholinesterase [2] = molecular target: T2, Cholinesterase (Homo sapiens, UniProt P06276); test: Inhibition of BChE (unknown origin) using butyryl thiocholine iodide as substrate after 30 mins by Ellman's method
T2 sequence (P06276 whole entry): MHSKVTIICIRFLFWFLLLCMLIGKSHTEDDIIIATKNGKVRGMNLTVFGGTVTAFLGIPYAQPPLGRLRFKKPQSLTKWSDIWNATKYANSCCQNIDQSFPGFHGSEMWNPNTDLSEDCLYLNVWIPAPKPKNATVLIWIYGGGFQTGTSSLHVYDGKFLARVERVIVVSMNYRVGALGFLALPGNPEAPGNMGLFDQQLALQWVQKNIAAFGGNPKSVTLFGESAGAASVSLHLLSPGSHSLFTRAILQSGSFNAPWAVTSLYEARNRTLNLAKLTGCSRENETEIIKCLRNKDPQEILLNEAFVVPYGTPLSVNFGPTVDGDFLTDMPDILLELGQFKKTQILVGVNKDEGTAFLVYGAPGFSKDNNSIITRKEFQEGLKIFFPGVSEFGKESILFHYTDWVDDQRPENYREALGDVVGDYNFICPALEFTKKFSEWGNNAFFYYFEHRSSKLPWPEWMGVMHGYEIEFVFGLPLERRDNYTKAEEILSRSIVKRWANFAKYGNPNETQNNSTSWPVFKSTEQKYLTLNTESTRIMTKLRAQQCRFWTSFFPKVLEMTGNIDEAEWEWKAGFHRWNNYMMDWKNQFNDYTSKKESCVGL

Acetylcholinesterase [3] = molecular target: T1, Acetylcholinesterase; test: Inhibition of AChE (unknown origin) using acetyl thiocholine iodide as substrate at 0.25 mM after 30 mins by Ellman's method
Cholinesterase [4] = molecular target: T2, Cholinesterase; test: Inhibition of BChE (unknown origin) using butyryl thiocholine iodide as substrate at 0.25 mM after 30 mins by Ellman's method
Acetylcholinesterase [5] = molecular target: T1, Acetylcholinesterase; test: Inhibition of AChE (unknown origin) using acetyl thiocholine iodide as substrate at 0.5 mM after 30 mins by Ellman's method
Cholinesterase [6] = molecular target: T2, Cholinesterase; test: Inhibition of BChE (unknown origin) using butyryl thiocholine iodide as substrate at 0.5 mM after 30 mins by Ellman's method
Pseudomonas aeruginosa [7] = test: Antibacterial activity against Pseudomonas aeruginosa after 18 to 24 hrs by Micro-titer assay; format: functional
Staphylococcus aureus [8] = test: Antibacterial activity against Staphylococcus aureus at 1 mg/ml after 24 hrs by agar-well diffusion method; format: functional; conditions: read-out: IZ
Escherichia coli [9] = test: Antibacterial activity against Escherichia coli DH5[alpha] at 1 mg/ml after 24 hrs by agar-well diffusion method; format: functional; conditions: read-out: IZ
Vibrio cholerae = test: Antibacterial activity against Vibrio cholerae at 1 mg/ml after 24 hrs by agar-well diffusion method; format: functional, organism-based
Escherichia coli [10] = test: Antibacterial activity against Escherichia coli DH5[alpha] after 18 to 24 hrs by Micro-titer assay; format: functional
Escherichia coli [11] = test: Antibacterial activity against Escherichia coli 5604 at 1 mg/ml after 24 hrs by agar-well diffusion method; format: functional, organism-based
Staphylococcus aureus [12] = test: Antibacterial activity against Staphylococcus aureus after 18 to 24 hrs by Micro-titer assay; format: functional
Salmonella typhi = test: Antibacterial activity against Salmonella typhi at 1 mg/ml after 24 hrs by agar-well diffusion method; format: functional, organism-based; conditions: Salmonella enterica subsp. enterica serovar Typhi
Escherichia coli [13] = test: Antibacterial activity against Escherichia coli DG2 at 1 mg/ml after 24 hrs by agar-well diffusion method; format: functional, organism-based
Pseudomonas aeruginosa [14] = test: Antibacterial activity against Pseudomonas aeruginosa at 1 mg/ml after 24 hrs by agar-well diffusion method; format: functional; conditions: for zone of inhibition at 1000 µg/mL: read-out: IZ
Acetylcholinesterase [15] = molecular target: T1, Acetylcholinesterase; test: Inhibition of AChE (unknown origin) using acetyl thiocholine iodide as substrate at 0.125 mM after 30 mins by Ellman's method
Cholinesterase [16] = molecular target: T2, Cholinesterase; test: Inhibition of BChE (unknown origin) using butyryl thiocholine iodide as substrate at 0.125 mM after 30 mins by Ellman's method

Row | SMILES | IC50 (Acetylcholinesterase [1]) [µmol] | IC50 (Cholinesterase [2]) [µmol] | inhibition (Acetylcholinesterase [3]) [%] | inhibition (Cholinesterase [4]) [%] | also measured
1 | COc1ccc(NC(=S)NNC=C2C(=O)NC(=S)NC2=O)cc1 | 206.31 | 56.81 | 59.1 | 85.4 | 
2 | Cc1cccc(Cl)c1NC(=S)NNC=C1C(=O)NC(=O)NC1=O |  | 8.81 |  |  | inhibition (Acetylcholinesterase [5]): 49.4%; inhibition (Cholinesterase [6]): 75.8%
3 | O=C1NC(=S)NC(=O)C1=CNNC(=S)Nc1ccc(Cl)cc1 | 121.11 | 75.41 | 62 | 81.6 | MIC (Pseudomonas aeruginosa [7]): 400 µg/mL (≈ 1120 µM); zone of inhibition at 1000 µg/mL (Staphylococcus aureus [8]): 15 mm; zone of inhibition at 1000 µg/mL (Escherichia coli [9]): 14 mm; inhibition zone (IZ) (Vibrio cholerae): inactive; MIC (Escherichia coli [10]): 200 µg/mL (≈ 562 µM); inhibition zone (IZ) (Escherichia coli [11]): inactive; MIC (Staphylococcus aureus [12]): 100 µg/mL (≈ 281 µM); inhibition zone (IZ) (Salmonella typhi): inactive; inhibition zone (IZ) (Escherichia coli [13]): inactive; inhibition zone (IZ) (Pseudomonas aeruginosa [14]): inactive
4 | O=C1NC(=S)NC(=O)C1=CNNC(=S)Nc1ccc(C(F)(F)F)cc1 | 99.41 | 8.11 | 75.6 | 78.2 | 
5 | CNC(=O)Oc1ccc2c(c1)[C@]1(C)CCN(C)[C@@H]1N2C |  |  | 92.5 | 92.5 | 
6 | O=C1NC(=S)NC(=O)C1=CNNC(=S)Nc1ccc(F)cc1 | 78.41 | 57.81 | 86.9 | 88.8 | 
7 | CC(=O)NC=C1C(=O)NC(=O)NC1=O | 90.91 | 116.61 | 77.7 | 88.3 | MIC (Pseudomonas aeruginosa [7]): 200 µg/mL (≈ 1010 µM); zone of inhibition at 1000 µg/mL (Staphylococcus aureus [8]): 18 mm; zone of inhibition at 1000 µg/mL (Escherichia coli [9]): 15 mm; inhibition zone (IZ) (Vibrio cholerae): inactive; MIC (Escherichia coli [10]): 100 µg/mL (≈ 507 µM); inhibition zone (IZ) (Escherichia coli [11]): inactive; MIC (Staphylococcus aureus [12]): 100 µg/mL (≈ 507 µM); inhibition zone (IZ) (Salmonella typhi): inactive; inhibition zone (IZ) (Escherichia coli [13]): inactive; zone of inhibition at 1000 µg/mL (Pseudomonas aeruginosa [14]): 18 mm
8 | O=C(NNC=C1C(=O)NC(=S)NC1=O)Nc1ccccc1 | 74.21 | 3.31 |  |  | inhibition (Acetylcholinesterase [15]): 66.8%; inhibition (Cholinesterase [16]): 85.1%
9 | O=C(N[C@H](CO)[C@H](O)c1ccc([N+](=O)[O-])cc1)C(Cl)Cl [CHLORAMPHENICOL] |  |  |  |  | MIC (Pseudomonas aeruginosa [7]): 1.56 µg/mL (≈ 4.83 µM); zone of inhibition at 1000 µg/mL (Staphylococcus aureus [8]): 25 mm; zone of inhibition at 1000 µg/mL (Escherichia coli [9]): 25 mm; inhibition zone (IZ) (Vibrio cholerae): inactive; MIC (Escherichia coli [10]): 1.56 µg/mL (≈ 4.83 µM); inhibition zone (IZ) (Escherichia coli [11]): inactive; MIC (Staphylococcus aureus [12]): < 0.78 µg/mL; inhibition zone (IZ) (Salmonella typhi): inactive; inhibition zone (IZ) (Escherichia coli [13]): inactive; zone of inhibition at 1000 µg/mL (Pseudomonas aeruginosa [14]): 25 mm
10 | O=C1NC(=S)NC(=O)C1=CNNC(=S)Nc1ccccc1 | 115.11 | 57.11 | 73.2 | 83.2 | 
11 | N#Cc1ccc(NC(=S)NNC=C2C(=O)NC(=O)NC2=O)cc1 |  | 231.61 | 11.4 | 66.8 | 
12 | NC(=S)NNC=C1C(=O)NC(=O)NC1=O | 119.11 | 56.51 | 65.8 | 87.5 | 
13 | O=C1NC(=S)NC(=O)C1=CNNC(=S)Nc1ccc(Br)cc1 | 79.21 | 68.41 | 80.4 | 84.5 | 
14 | O=C1NC(=O)C(=CNNC(=O)Nc2ccccc2)C(=O)N1 |  | 38.51 |  |  | inhibition (Acetylcholinesterase [15]): 39.6%; inhibition (Cholinesterase [16]): 79.2%
15 | O=C1NC(=O)C(=CNNC(=S)Nc2cccc(C(F)(F)F)c2)C(=O)N1 | 40.78 | 136.91 |  |  | inhibition (Acetylcholinesterase [5]): 83.3%; inhibition (Cholinesterase [6]): 75.9%
